Consider 16 molecules from US10597399B2, “Substituted triazolopiperazine PARP inhibitor, preparation method therefor and use thereof” (Shanghai Institute of Materia Medica, Chinese Academy of …, priority 2015, dated 2020).

A value given as a limit tells only on which side of the number the result lay.

For data set [1], the system named is Capan-1/AZD2281 drug resistant cell. Briefly: cells. To be noted: Homo sapiens.
For data set [2] the following is noted: background statement; cited from earlier work.
Data set [3] has as its system SW-620 (colon cancer). Nature of the data set: Proliferation of different tumor cells: SW-620. The settings on record: for IC50: Homo sapiens.
Data set [4] deals with MDA-MB-436 cells (BRCA1 gene defect). Nature of the data set: Inhibition of proliferation of MDA-MB-436 cells (CCK-8 and SRB method). To be noted: Homo sapiens, MDA-MB-436, read-out: Cellular IC50 (nM) MDA-MB-436 (BRCA1gene defect). Background: Tetrazolium assays rely on reduction of a dye to a coloured formazan, in cell work by metabolically active cells.
For data set [5], the system named is HCT-15 (colon cancer). Briefly: Proliferation of different tumor cells: HCT-15. The settings on record: for IC50: Homo sapiens.
Data set [6] deals with Capan-1 parental cell. Nature of the data set: Anti-proliferative effect on Capan-1 parental cell. The settings on record: Homo sapiens.
Data set [7] relates to HCC-1937 (breast cancer). Nature of the data set: Proliferation of different tumor cells: HCC-1937. To be noted: for IC50: Homo sapiens, HCC1937.
Data set [8] relates to Capan-1 (pancreatic cancer). Nature of the data set: Proliferation of different tumor cells: Capan-1. The settings on record: Homo sapiens.
Data set [9] relates to UWB1.289 (ovarian cancer). Nature of the data set: Proliferation of different tumor cells: UWB1.289. To be noted: for IC50: UWB1289.
In data set [10] the test system is Capan-1 cells (BRCA2 gene defect). Nature of the data set: Inhibition of proliferation of Capan-1 cells (CCK-8 and SRB method). To be noted: Homo sapiens, CAPAN-1, read-out: Cellular IC50 (nM) Capan-1 (BRCA2gene defect).
Data set [11] addresses PARP-1 (Homo sapiens (Human), UniProt P09874). The settings on record: PARP-1 enzyme.

Chain of PARP-1 (P09874 whole entry): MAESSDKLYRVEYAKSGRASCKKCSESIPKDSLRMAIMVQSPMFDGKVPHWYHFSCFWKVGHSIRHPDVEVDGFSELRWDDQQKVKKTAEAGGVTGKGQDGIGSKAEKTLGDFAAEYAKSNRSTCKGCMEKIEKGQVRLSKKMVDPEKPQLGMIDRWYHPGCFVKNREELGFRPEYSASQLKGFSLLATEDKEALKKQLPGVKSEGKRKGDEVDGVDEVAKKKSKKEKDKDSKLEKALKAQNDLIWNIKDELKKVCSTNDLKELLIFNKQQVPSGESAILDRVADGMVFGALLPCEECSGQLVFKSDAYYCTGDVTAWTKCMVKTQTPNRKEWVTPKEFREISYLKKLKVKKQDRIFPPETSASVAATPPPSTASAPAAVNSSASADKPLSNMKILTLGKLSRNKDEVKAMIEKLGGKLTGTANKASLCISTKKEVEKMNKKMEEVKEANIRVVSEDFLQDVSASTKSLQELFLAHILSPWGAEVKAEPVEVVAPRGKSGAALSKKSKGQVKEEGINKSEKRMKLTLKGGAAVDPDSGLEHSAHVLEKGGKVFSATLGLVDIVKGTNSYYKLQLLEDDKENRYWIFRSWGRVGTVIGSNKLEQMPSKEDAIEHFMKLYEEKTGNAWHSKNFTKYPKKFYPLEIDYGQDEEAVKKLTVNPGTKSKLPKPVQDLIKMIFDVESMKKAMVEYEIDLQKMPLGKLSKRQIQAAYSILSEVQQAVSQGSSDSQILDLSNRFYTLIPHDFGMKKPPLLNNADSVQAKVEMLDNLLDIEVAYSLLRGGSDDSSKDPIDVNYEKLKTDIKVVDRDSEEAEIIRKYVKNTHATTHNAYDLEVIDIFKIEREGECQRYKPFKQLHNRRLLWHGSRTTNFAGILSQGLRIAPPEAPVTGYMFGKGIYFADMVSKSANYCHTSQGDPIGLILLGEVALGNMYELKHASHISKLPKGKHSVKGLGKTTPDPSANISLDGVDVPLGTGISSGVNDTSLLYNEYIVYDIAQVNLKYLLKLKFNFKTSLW

A word on the IC50: it is the concentration that inhibits the measured activity by half. What is called bioavailability is the share of a dose that reaches the circulation, judged against a reference dose that is usually intravenous. In the case of `O=C(c1cc(Cc2n[nH]c(=O)c3ccccc23)ccc1F)N1CCN(C(=O)C2CC2)CC1` [AZD2281, olaparib, reference compound], the IC50 in data set [1] was 41100 ± 1590 nM; in data set [3] it was 5840 nM; in data set [4] it was roughly 200 nM; in data set [5], greater than 10000 nM; in data set [6] it was 2899 ± 17 nM; in data set [7] it was 7390 nM. In addition, the IC50 is 653 nM in data set [8], 177 nM in data set [9] and roughly 500 nM in data set [10]. For the same molecule, the bioavailability in [2] was less than 15%. Further, in data set [2], the “in vivo action time and half-life time” value was less than 1 h.

Consider `CC1CN(C(=O)c2cc(Cc3n[nH]c(=O)c4ccccc34)ccc2F)Cc2nnc(C3CCNCC3)n21` (stereo not drawn) [Compound S3], for which the IC50 in data set [4] and in data set [10] was less than 200 nM throughout.

For `CC1CN(C(=O)c2cc(Cc3n[nH]c(=O)c4ccccc34)ccc2F)Cc2nnc(-c3cccs3)n21` (stereo not drawn) [Compound S7], the IC50 in [4] and in data set [10] was less than 5 nM throughout.

As for `CC1CN(C(=O)c2cc(Cc3n[nH]c(=O)c4ccccc34)ccc2F)Cc2nnc(-c3c[nH]cn3)n21` (stereo not drawn) [Compound S8], the IC50 in [4] and in [10] was less than 20 nM in each case.

In the case of `CC1CN(C(=O)c2cc(Cc3n[nH]c(=O)c4ccccc34)ccc2F)Cc2nnc(-c3ncc[nH]3)n21` (stereo not drawn) [Compound S9], the IC50 was less than 5 nM in [4] and less than 20 nM in [10].

`CC1CN(C(=O)c2cc(Cc3n[nH]c(=O)c4ccccc34)ccc2F)Cc2nnc(-c3nccn3C)n21` (stereo not drawn) [Compound S10]: the IC50 in data set [4] and in [10] was less than 20 nM each time.

As to `CC1CN(C(=O)c2cc(Cc3n[nH]c(=O)c4ccccc34)ccc2F)Cc2nnc(-c3cncs3)n21` (stereo not drawn) [Compound S11], the IC50 in [4] and in data set [10] was less than 20 nM each time.

Consider `CC1CN(C(=O)c2cc(Cc3n[nH]c(=O)c4ccccc34)ccc2F)Cc2nnc(-c3ccsc3)n21` (stereo not drawn) [Compound S12], for which the IC50 in data set [4] and in data set [10] was less than 20 nM in each case.

Turning to `CC1CN(C(=O)c2cc(Cc3n[nH]c(=O)c4ccccc34)ccc2F)Cc2nnc(-c3ccccn3)n21` (stereo not drawn) [Compound S13], the IC50 in [1] is less than 0.256 nM; in data set [3] it was 45 nM; in data set [4] it was less than 5 nM; in data set [5], 143 nM; in data set [6], less than 0.256 nM; in [7], 21.9 nM. The IC50 in data set [8] is 1.04 nM; in data set [9] it was 3 nM; in data set [10], less than 5 nM. Further, the “Ratio IC50 AZD/IC50 S13” value in [3] came out at 130; in data set [5] it was 70; in data set [7] (HCC-1937), 338; in data set [9] (UWB1.289) it was 59.

On to `CC1CN(C(=O)c2cc(Cc3n[nH]c(=O)c4ccccc34)ccc2F)Cc2nnc(-c3cnn(C)c3)n21` (stereo not drawn) [Compound S14], for which the IC50 in data set [4] and in [10] was less than 20 nM in each case.

For the molecule `CC1CN(C(=O)c2cc(Cc3n[nH]c(=O)c4ccccc34)ccc2F)Cc2nnc(-c3nccs3)n21` (stereo not drawn) [Compound S15], the IC50 in data set [4] and in data set [10] was less than 5 nM throughout.

In the case of `CC1CN(C(=O)c2cc(Cc3n[nH]c(=O)c4ccccc34)ccc2F)Cc2nnc(-c3ccco3)n21` (stereo not drawn) [Compound S16], the IC50 in data set [4] and in [10] was less than 5 nM in each case.

In the case of `CC1CN(C(=O)c2cc(Cc3n[nH]c(=O)c4ccccc34)ccc2F)Cc2nnc(-c3ccc(CO)o3)n21` (stereo not drawn) [Compound S18], the IC50 in data set [4] and in data set [10] was less than 5 nM each time.

Regarding `CC1CN(C(=O)c2cc(Cc3n[nH]c(=O)c4ccccc34)ccc2F)Cc2nnc(-c3cnccn3)n21` (stereo not drawn) [Compound S20], the IC50 in data set [4] and in data set [10] was less than 20 nM each time.

Turning to `CC1CN(C(=O)c2cc(Cc3n[nH]c(=O)c4ccccc34)ccc2F)Cc2nnc(-c3ncccc3F)n21` (stereo not drawn) [Compound S33], the IC50 in data set [4] and in data set [10] was less than 20 nM throughout.

Take `C[C@@H]1CN(C(=O)c2cc(Cc3n[nH]c(=O)c4ccccc34)ccc2F)Cc2nnc(-c3ccccn3)n21` [S13-(+)]: the “activity of (+)-S13 relative to (−)-S13” value in data set [11] is “twice”.
